pIC50: −log10 of the molar value.

Series [1] concerns the target T1, hormone sensitive lipase (HSL) (Homo sapiens, UniProt Q05469).
T1 construct: made in house
T1 sequence (Q05469 1-1076): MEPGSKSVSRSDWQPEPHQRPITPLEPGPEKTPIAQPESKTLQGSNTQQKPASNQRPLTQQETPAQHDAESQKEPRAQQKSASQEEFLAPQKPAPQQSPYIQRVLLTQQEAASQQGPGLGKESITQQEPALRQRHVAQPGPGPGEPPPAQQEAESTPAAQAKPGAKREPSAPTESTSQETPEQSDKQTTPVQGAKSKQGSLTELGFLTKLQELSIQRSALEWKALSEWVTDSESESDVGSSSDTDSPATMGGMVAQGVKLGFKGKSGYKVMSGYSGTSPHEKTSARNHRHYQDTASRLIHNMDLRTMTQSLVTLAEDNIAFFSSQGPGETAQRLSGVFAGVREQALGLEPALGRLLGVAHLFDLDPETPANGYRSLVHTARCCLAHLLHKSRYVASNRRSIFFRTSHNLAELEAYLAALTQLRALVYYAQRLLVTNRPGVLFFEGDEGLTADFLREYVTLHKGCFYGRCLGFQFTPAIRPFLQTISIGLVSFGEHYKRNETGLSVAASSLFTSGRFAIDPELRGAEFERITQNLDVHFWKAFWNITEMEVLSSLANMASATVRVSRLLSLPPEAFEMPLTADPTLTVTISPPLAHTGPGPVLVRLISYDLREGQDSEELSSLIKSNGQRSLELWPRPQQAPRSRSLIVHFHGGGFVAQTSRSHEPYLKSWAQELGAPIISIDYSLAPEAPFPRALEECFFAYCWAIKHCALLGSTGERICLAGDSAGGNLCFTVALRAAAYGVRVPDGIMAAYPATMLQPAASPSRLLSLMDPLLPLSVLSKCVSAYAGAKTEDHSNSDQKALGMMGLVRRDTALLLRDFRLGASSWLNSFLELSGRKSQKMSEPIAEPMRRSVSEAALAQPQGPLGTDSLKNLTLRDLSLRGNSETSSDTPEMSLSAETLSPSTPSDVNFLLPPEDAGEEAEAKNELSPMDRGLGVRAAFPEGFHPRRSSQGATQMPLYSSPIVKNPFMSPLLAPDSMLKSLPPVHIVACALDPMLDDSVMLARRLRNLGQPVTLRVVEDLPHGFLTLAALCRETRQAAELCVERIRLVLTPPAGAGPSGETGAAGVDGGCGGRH
Briefly: 3190.2: Assay for determination of IC50 value for the inhibition of hormone sensitive lipase. It counts as biochemical. Particulars: fluorochrome-labeled triacylglyceride substrate; 30 min pre-incubation at 25° C., 120 min incubation at 37° C.; 4PL fit. The text has this: Materials. The Hormone-sensitive lipase was provided by Dr. Cecilia Holm, from Lund University Sweden or produced and purified by Novo Nordisk (NN) using the reagents and protocols used by Dr. Holm. The substrates used are: ^3H-labeled triolein (TO) from Amersham, Buckinghamshire, U.K. cat o. TRA191; 5-20 Ci/mmol dissolved in toluene, triolein (Sigma, Cat. No. T-1740), fluorochrome-labeled triacylglyceride (cis-octadec-9-enoic acid 2-[12-(7-nitrobenzo[1,2,5]oxadiazol-4-ylamino)-dodecanoyloxy]-1-cis-octadec-9-enoyloxymethylethyl ester) prepared by Novo Nordisk (NN) by conventional methods, and 1,3-(di[^3H]-stearin), 2-(PEG-Biotin)glycerol prepared in collaboration with Amersham Pharmacia Biotech, UK and described in WO 01/073442. Phosphatidyl choline (PC) and phosphatidyl inositol (PI) are from Sigma (St Luis Mo. cat. Nos. P-3556 and P-5954, respectively). All other reagents are of commercial grade and obtained from various commercial sources.
3190.2: Assay for determination of IC50 value for the inhibition of hormone sensitive lipase by compound. Standard concentrations of compound are 100 μM and 5-fold dilutions (initial concentration corresponding to 10 μM final concentration and 5-fold).
A lipid emulsion with fluorochrome-labeled triacylglyceride and phospholipid is used as substrate with a standard concentration of highly purified HSL (12 μg/mL initial concentration corresponding to 600 ng/mL final concentration). BSA is added as product acceptor. The transfer of the fluorochrome from the lipid phase to the water (BSA) phase changes the fluorescent properties of the fluorochrome. The changes can be monitored on a fluorimeter with an excitation wavelength of 450 nm and an emission wavelength of 545 nm.
Compound and HSL (20 μL compound, 10 μL enzyme and 70 μL PED-BSA buffer) is pre-incubated for 30 min at 25° C. before addition of substrate (100 μL). Amount of formed product is measured after 120 min incubation at 37° C.
Results are given as IC50 values after 4PL fit of obtained activity data.

In the case of `CC1(C)CC(=O)N(c2ccc(OC(=O)N3CCc4ccccc4C3)nc2)C(=O)C1` [Example 1, 3,4-Dihydro-1H-isoquinoline-2-carboxylic acid 4,4-dimethyl-2,6-dioxo-3,4,5,6-tetrahydro-2H-[1,3′]bi-pyridinyl-6′-yl ester], the melting point fell in the range of 156 to 158 °C. This compound also gave a pIC50 in series [1] of 6.40.
For the compound `O=C(Oc1ccc(N2C(=O)CC3(CCCC3)CC2=O)cn1)N1CCc2ccccc2C1` [Example 3, 3,4-Dihydro-1H-isoquinoline-2-carboxylic acid 5-(7,9-dioxo-8-azaspiro[4.5]dec-8-yl)pyridin-2-yl ester], the pIC50 in series [1] was 7.40.
Turning to `O=C(Oc1ccc(NC2=NC3(CCCC3)CS2)cn1)N1CCc2ccccc2C1` [Example 4, 3,4-Dihydro-1H-isoquinoline-2-carboxylic acid 5-(3-thia-1-azaspiro[4.4]non-1-en-2-ylamino)-pyridin-2-yl ester], in series [1], the negative-log IC50 (pIC50) was 6.40.

The values above are taken from patent US20080227792A1, “3,4-Dihydro-1H-Isoquinoline-2-Carboxylic Acid 5-Aminopyridin-2-Yl Esters” (Novo Nordisk A/S, priority 2005, published 2008).
